Here are results for 40 compounds from ChEMBL document CHEMBL2434901, “2-Phenylbenzofuran derivatives alleviate mitochondrial damage via the inhibition of β-amyloid aggregation” (Bioorg Med Chem Lett, 2013).

Activity calls are given as the source filed them. No cut-off for these calls is given here.

The target of series [1] is Amyloid-beta precursor protein (Homo sapiens) (UniProt P05067). As to the kind of experiment: Inhibition of amyloid beta (unknown origin) fibril formation at 10 uM by thioflavin T fluorescent dye assay.
Series [2] deals with HT-22. As to the kind of experiment: Neuroprotective activity in mouse HT22 cells assessed as reduction of amyloid beta (1 to 42)-induced cytotoxicity by measuring green to red fluorescence ratio using JC1 staining at 10 uM after 10 mins relative to amyloid beta (1 to 42) treated control. The format is functional.
The nature of series [3]: Cytotoxicity against mouse HT22 cells assessed as cell viability at 10 uM by MTT assay relative to control. The format is cell-based, HT-22. The note with it: read-out: Activity.
Series [4] deals with Amyloid-beta precursor protein (Homo sapiens) (UniProt P05067). As to the kind of experiment: Inhibition of amyloid beta (1 to 42) (unknown origin) oligomerization at 10 uM after 2 hrs by SDS-PAGE analysis.
Series [5] has as its system HT-22. As to the kind of experiment: Neuroprotective activity in mouse HT22 cells assessed as reduction of amyloid beta (1 to 42)-induced cytotoxicity by measuring green to red fluorescence ratio using JC1 staining at 10 uM after 10 mins relative to control. Type of series: functional. Particulars: HT-22, 10 min.

Chain of Amyloid-beta precursor protein (Homo sapiens) (P05067 whole entry): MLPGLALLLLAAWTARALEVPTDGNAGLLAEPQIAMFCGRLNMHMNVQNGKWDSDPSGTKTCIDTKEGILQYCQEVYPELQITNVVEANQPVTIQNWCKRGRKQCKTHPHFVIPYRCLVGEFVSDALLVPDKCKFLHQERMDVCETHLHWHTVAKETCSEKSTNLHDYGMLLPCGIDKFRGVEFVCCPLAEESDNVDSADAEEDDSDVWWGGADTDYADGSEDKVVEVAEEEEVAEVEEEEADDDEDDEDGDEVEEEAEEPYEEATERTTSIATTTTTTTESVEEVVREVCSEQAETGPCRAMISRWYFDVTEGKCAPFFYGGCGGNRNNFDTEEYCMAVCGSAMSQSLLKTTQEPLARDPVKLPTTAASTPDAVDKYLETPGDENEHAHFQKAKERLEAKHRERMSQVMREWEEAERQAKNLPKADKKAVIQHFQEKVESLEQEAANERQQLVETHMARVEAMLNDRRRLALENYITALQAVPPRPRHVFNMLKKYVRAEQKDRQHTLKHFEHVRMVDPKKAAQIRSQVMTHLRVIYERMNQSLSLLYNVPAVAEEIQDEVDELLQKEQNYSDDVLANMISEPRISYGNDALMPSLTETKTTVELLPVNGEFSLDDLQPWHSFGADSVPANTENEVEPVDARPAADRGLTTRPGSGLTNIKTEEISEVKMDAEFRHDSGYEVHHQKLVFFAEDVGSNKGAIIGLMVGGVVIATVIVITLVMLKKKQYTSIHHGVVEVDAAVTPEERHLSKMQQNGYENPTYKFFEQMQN

The compound `O=C(O)/C=C/c1cc(O)c2oc(-c3ccccc3)cc2c1` showed an inhibition in series [1] of 16.8%. In the case of `COc1cc(/C=C/C(=O)O)cc2cc(-c3ccc(N(C)C)c(F)c3)oc12`, the Ratio with HT-22 [2] was 103.1. In addition, the viability at 10 µM in series [3] stood at 102%. Besides, in series [4], the inhibition result was “Active”. Besides, the inhibition in series [1] was 57.5%. Compound `COc1ccccc1-c1cc2cc(/C=C/C(=O)O)cc(O)c2o1` came in with an inhibition in series [1] of 0%. On the same count and under the same terms, the value for `O=C(O)/C=C/c1cc(O)c2oc(-c3ccccc3O)cc2c1` was 28.3%; that for `COc1ccc(-c2cc3cc(/C=C/C(=O)O)cc(OC)c3o2)cc1` was 12.5%; that for `CN(C)c1cccc(-c2cc3cc(/C=C/C(=O)O)cc(O)c3o2)c1` was 33.3%. For `COc1cc(/C=C/C(=O)O)cc2cc(-c3ccc(N(C)C)cc3)oc12`, the Ratio in the series with HT-22 [2] is reported as 90.3. Moreover, in series [3], the viability at 10 µM amounted to 93.3%. The inhibition result in series [4] was “Active”. This compound also had an inhibition in series [1] of 72.6%. Turning to `COc1cc(/C=C/C(=O)O)cc2cc(-c3cccc(N(C)C)c3)oc12`, in series [1], the inhibition was 34.8%. In the case of `CN(C)c1ccc(-c2cc3cc(/C=C/C(=O)O)cc(O)c3o2)cc1`, the Ratio with HT-22 [2] is on record as 123.2. In the series on HT-22 [5], the inhibition at 10 µM was 73.1%. In addition, the viability at 10 µM in series [3] was determined as 100%. Besides, the inhibition result in series [4] was “Active”. The compound also came in with an inhibition in series [1] of 70.6%. Consider `CN(C)c1ccccc1-c1cc2cc(/C=C/C(=O)O)cc(O)c2o1`, for which the inhibition in series [1] is 8.1%. Still for that read-out and setting: next, `O=C(O)/C=C/c1cc(O)c2oc(-c3ccccc3F)cc2c1`: 19.7%. Turning to `COc1cc(-c2cc3cc(/C=C/C(=O)O)cc(O)c3o2)ccc1O`, the Ratio in the series with HT-22 [2] is on record as 115.9. The viability at 10 µM in series [3] was 105%. Also, the inhibition in series [1] was found to be 42.6%. The compound `COc1cc(/C=C/C(=O)O)cc2cc(-c3ccccc3F)oc12` yielded an inhibition in series [1] of 7%. Still for that read-out and setting: the value for `CN(C)c1ccc(-c2cc3cc(/C=C/C(=O)O)ccc3o2)cc1` was 57%; that for `O=C(O)/C=C/c1cc(O)c2oc(-c3cccc(O)c3)cc2c1` was 0%; that for `COc1cc(/C=C/C(=O)O)cc2cc(-c3ccccc3)oc12` was 0%. The same measure, in the same setting: next, `COc1cc(/C=C/C(=O)O)cc2cc(-c3cccc(O)c3)oc12`: 0%; `COc1cc(-c2cc3cc(/C=C/C(=O)O)cc(OC)c3o2)ccc1O`: 28.4%. For `O=C(O)/C=C/c1cc(O)c2oc(-c3ccc(O)cc3)cc2c1`, in series [1], the inhibition is 22.4%. Same read-out and setting: next, `COc1cc(/C=C/C(=O)O)cc2cc(-c3cccc(F)c3)oc12`: 0.4%; `COc1ccc(-c2cc3cc(/C=C/C(=O)O)cc(O)c3o2)cc1N(C)C`: 32.5%.

`COc1cc(/C=C/C(=O)O)cc2cc(-c3ccccc3O)oc12` displayed an inhibition in series [1] of 18.1%. Consider `COc1cc(-c2cc3cc(/C=C/C(=O)O)cc(OC)c3o2)ccc1N(C)C`, for which, in the series on HT-22 [2], the Ratio is listed as 104.2. For the same compound, the viability at 10 µM in series [3] amounted to 104%. The inhibition entry in series [4] is “Active”. The same compound returned an inhibition in series [1] of 50.2%. In turn, `O=C(O)/C=C/c1cc(O)c2oc(-c3ccc(F)cc3)cc2c1` gave an inhibition in series [1] of 26.7%. With `COc1ccc(-c2cc3cc(/C=C/C(=O)O)cc(OC)c3o2)cc1N(C)C`, the inhibition in series [1] came to 11.7%.

`COc1cccc(-c2cc3cc(/C=C/C(=O)O)cc(O)c3o2)c1` showed an inhibition in series [1] of 0%. On the same count and under the same terms, next, `COc1cc(/C=C/C(=O)O)cc2cc(-c3ccc(F)cc3)oc12`: 2.7%. Consider `COc1ccc(-c2cc3cc(/C=C/C(=O)O)cc(O)c3o2)cc1O`, for which the Ratio with HT-22 [2] came out at 122.1. Also, in the series with HT-22 [5], the inhibition at 10 µM was 14.5%. Also, the viability at 10 µM in series [3] was determined as 104%. The inhibition in series [1] was 43.3%.

Turning to `COc1ccccc1-c1cc2cc(/C=C/C(=O)O)cc(OC)c2o1`, the inhibition in series [1] was found to be 0%. As to `CN(C)c1cc(-c2cc3cc(/C=C/C(=O)O)cc(O)c3o2)ccc1F`, the inhibition in series [1] came out at 16.8%. Consider `CN(C)c1ccc(-c2cc3cc(/C=C/C(=O)O)cc(O)c3o2)cc1F`, for which the Ratio in the series with HT-22 [2] turned out to be 115.7. Further, the inhibition at 10 µM in the series with HT-22 [5] came to 22.3%. Further, the viability at 10 µM in series [3] stood at 111%. Further, in series [4], the inhibition result is “Active”. For the same compound, the inhibition in series [1] turned out to be 49.8%. The corresponding values for `COc1cc(-c2cc3cc(/C=C/C(=O)O)cc(O)c3o2)ccc1N(C)C` are 113.4, 45%, 102%, “Active” and 45.9%. `COc1cc(/C=C/C(=O)O)cc2cc(-c3ccc(F)c(N(C)C)c3)oc12` returned an inhibition in series [1] of 9.9%.

`COc1ccc(-c2cc3cc(/C=C/C(=O)O)cc(O)c3o2)cc1` came in with an inhibition in series [1] of 34.2%. As to `COc1cccc(-c2cc3cc(/C=C/C(=O)O)cc(OC)c3o2)c1`, the inhibition in series [1] came to 0%. The same measure, in the same setting: next, `O=C(O)/C=C/c1cc(O)c2oc(-c3cccc(F)c3)cc2c1`: 14.3%; `COc1cc(/C=C/C(=O)O)cc2cc(-c3ccccc3N(C)C)oc12`: 3.7%.

On to `COc1cc(/C=C/C(=O)O)ccc1O`, for which the inhibition entry in series [4] is “Active”. In addition, the inhibition in series [1] was found to be 42.8%.

Take `COc1ccc(-c2cc3cc(/C=C/C(=O)O)cc(OC)c3o2)cc1O`: the inhibition in series [1] amounted to 0%. The same measure, in the same setting: next, `COc1cc(/C=C/C(=O)O)cc2cc(-c3ccc(O)cc3)oc12`: 14.8%.
